From patent US10745355B2, “Anti-cancer compounds” (THE UNIVERSITY OF SYDNEY, priority 2015, dated 2020)

Legend:
U87 = assay: Alamar blue cell viability assay, U87 cells; format: cell-based; conditions: Homo sapiens, U-87 MG; 72 hours of treatment; mean±SEM, three independent experiments
Procedure: U87 and U251 cell lines were obtained from the European Collection of Cell Cultures (ECACC) through CellBank Australia. U87-EGFRvIII cell line was obtained from their lab of origin (Nishikawa et al., 1994, Proc Natl Acad Sci USA 91: 7727-7731) and tested for EGFR amplification and mutation by immunoblotting and flow cytometry. Cells were cultured in DMEM medium (Invitrogen by Life Technologies, Carlsbad, Calif., USA) supplemented with 10% FBS (Sigma-Aldrich) at 37° C. and 5% CO2. Primary gliomaspheres (RN1, classical; WK1, mesenchymal) were derived from glioblastoma specimens (Day et al., 2013, Cancers 5: 357-371; Day et al., 2013, Cancer Cell 23: 238-248), maintained in StemPro NSC serum-free media supplemented with EGF and FGF (all Life Technologies), and grown on matrigel-coated flasks (Pollard et al., 2009, Cell Stem Cell 4: 568-580).
Cell viability was determined using Alamar blue assay after 72 hours of treatment (Table 2). EC50 values were calculated using non-linear regression on Graph Pad Prism version 5. c Log P values calculated using ChemBioDraw Software. Results are mean±SEM from three independent experiments performed in triplicates.

CSK = CSK (Homo sapiens, UniProt P41240); assay: Kinase profiling (ProQinase 33PanQinase Activity Assay), CSK; format: biochemical; conditions: read-out: residual activity, CSK
Procedure: (§1) The kinase profiling of compound 1-08 at 10 and 50 μM was performed by ProQinase GmbH (Freiburg, Germany). A radiometric protein kinase assay (^33PanQinase® Activity Assay) and the non-radiometric ADP-Glo™ Assay (Promega, Madison, Wis., USA) were used for measuring kinase activity of 387 protein kinases and 13 lipid kinases, respectively. The results are shown in Table 3 (only the top 10 kinases are listed, and the selectivity score describes the portion of kinases inhibited more than 50% in relation to all tested kinases).

IGF1R = IGF1R (Homo sapiens, UniProt P08069); assay: Kinase profiling (ProQinase 33PanQinase Activity Assay), IGF1R; format: biochemical; conditions: read-out: residual activity, IGF1R
Procedure: as §1

LYN = LYN (Homo sapiens, UniProt P07948); assay: Kinase profiling (ProQinase 33PanQinase Activity Assay), LYN; format: biochemical; conditions: read-out: residual activity, LYN
Procedure: as §1

RON = RON (Homo sapiens, UniProt Q04912); assay: Kinase profiling (ProQinase 33PanQinase Activity Assay), RON; format: biochemical; conditions: read-out: residual activity, RON
Procedure: as §1

SRC = SRC (Homo sapiens, UniProt P12931); assay: Kinase profiling (ProQinase 33PanQinase Activity Assay), SRC; format: biochemical; conditions: read-out: residual activity, SRC
Procedure: as §1

[1] = system: 387 protein kinases and 13 lipid kinases; assay: Kinase profiling, selectivity score over the whole panel; format: biochemical
Procedure: as §1

Porcine brain tubulin = target: T1, Porcine brain tubulin (Sus scrofa, UniProt P02550+P02554); assay: Fluorescence-based tubulin polymerisation assay; format: biochemical; conditions: 37° C., FIG. 10A
T1 construct: purchased Cytoskeleton, Colo., USA (Tubulin Polymerisation Assay kit); host or cells: porcine brain (tissue-purified)
Procedure: (§2) FIGS. 10A-10D. […] (10A) Compound 1-08 inhibits tubulin polymerisation in vitro. Data are expressed as mean from at least 3 independent experiments; each data point was performed in triplicates. (10B) U87 cells treated with compound 1-08 (24 h) were stained with Alexa488-labelled anti-β-tubulin antibody (green) or DAPI (blue). Treatment profoundly disturbed the microtubule network and caused formation of multinucleated cell (white arrows). White scale bar represents 50 μm. Multinucleated cells were manually counted and at least 200 cells were counted for each sample. Data in the bar graph (10C) are expressed as mean±SEM (n=3; * P<0.05, *** P<0.001; 1-way ANOVA followed by Newman-Keuls posttest). (10D) U87 cells were treated with compound 1-08 (48 h), tubulin and DNA were stained as in (10B). Treatment with 1-08 caused defective mitotic spindle formation. Representative images from 3 independent experiments are shown. White scale bar represents 2 μm.
(§3) The effect of compound 1-08 on tubulin polymerisation and mitotic spindle formation was also investigated. The fluorescence-based tubulin polymerisation assay was conducted in the final volume of 55 μL using the Tubulin Polymerisation Assay kit (Cytoskeleton, Colo., USA) as per the manufacturer's instructions. Porcine brain tubulin was incubated with test compounds (paclitaxel, vinblastine and compound 1-08) at 37° C. and fluorescence was measured using FLUOstar Omega microplate reader (BMG Labtech, Ortenberg, Germany; excitation at 355 nm and emission at 460 nm). […] To test whether compound 1-08 alters microtubules in vivo, U87 glioblastoma cells were treated with compound 1-08 and the effect on the microtubules was determined by immunofluorescence staining of β-tubulin. […] The consequence of microtubule depolymerisation induced by compound 13 was disrupted spindle assembly (FIG. 10D). In untreated U87 cells undergoing mitosis, microtubules are assembled into bipolar spindles (control images).

U87 glioblastoma cells = assay: Immunofluorescence staining of β-tubulin in treated U87 cells (microtubules, multinucleated cells, mitotic spindle); format: cell-based
Procedure: as §2, §3

U87vIII = assay: Annexin-FITC/7-AAD apoptosis assay, U87vIII cells; format: cell-based; conditions: 48 hours treatment
Procedure: FIGS. 4A-4D. […] U87 (4A-4B) and U87vIII (4C-4D) cells were treated with SC-38 for 48 hours and stained with Annexin-FITC/7-AAD. Apoptotic cells were visualized using the MUSE cell analyzer (Millipore).
FIGS. 6A-6D. […] U87 (A B) (6A-6B) and U87vIII (6C-6D) cells were treated with compound 1-08 for 48 hours and stained with Annexin-FITC/7-AAD. Apoptotic cells were visualized using the MUSE cell analyzer (Millipore). Results are means±SEM from 3 independent experiments. One-way ANOVA followed by Dunnet post-test was used to calculate statistical significance (***P<0.001).
(§4) U87 (FIGS. 4, A-B) and U87vIII (FIG. 4, C-D) cells were treated with SC-38 for 48 hours and stained with Annexin-FITC/7-AAD. Apoptotic cells were visualized using the MUSE cell analyzer (Millipore). Results are means±SEM from 3 independent experiments. One-way ANOVA followed by Dunnet post-test was used to calculate statistical significance (**P<0.01, ***P<0.001)
as §4, with “6,” for “4,”, “compound 1-08” for “SC-38”, “three” for “3”, “(***P<0.001).” for “(**P<0.01, ***P<0.001)”

Sequence of SRC (P12931 whole entry): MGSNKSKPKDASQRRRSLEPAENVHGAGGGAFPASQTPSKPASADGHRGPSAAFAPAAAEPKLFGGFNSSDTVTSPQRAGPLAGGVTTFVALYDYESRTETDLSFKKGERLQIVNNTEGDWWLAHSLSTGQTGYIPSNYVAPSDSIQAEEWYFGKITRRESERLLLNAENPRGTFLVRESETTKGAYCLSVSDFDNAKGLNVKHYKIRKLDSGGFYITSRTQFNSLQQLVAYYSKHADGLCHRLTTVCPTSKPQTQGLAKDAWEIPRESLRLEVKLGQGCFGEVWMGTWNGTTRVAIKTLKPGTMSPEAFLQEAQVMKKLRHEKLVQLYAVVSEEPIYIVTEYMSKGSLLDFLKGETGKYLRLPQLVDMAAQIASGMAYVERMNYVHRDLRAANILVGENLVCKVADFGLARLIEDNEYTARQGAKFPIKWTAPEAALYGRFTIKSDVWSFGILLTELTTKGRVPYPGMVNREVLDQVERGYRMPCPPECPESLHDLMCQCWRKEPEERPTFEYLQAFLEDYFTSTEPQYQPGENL
Sequence of RON (Q04912 25-1400): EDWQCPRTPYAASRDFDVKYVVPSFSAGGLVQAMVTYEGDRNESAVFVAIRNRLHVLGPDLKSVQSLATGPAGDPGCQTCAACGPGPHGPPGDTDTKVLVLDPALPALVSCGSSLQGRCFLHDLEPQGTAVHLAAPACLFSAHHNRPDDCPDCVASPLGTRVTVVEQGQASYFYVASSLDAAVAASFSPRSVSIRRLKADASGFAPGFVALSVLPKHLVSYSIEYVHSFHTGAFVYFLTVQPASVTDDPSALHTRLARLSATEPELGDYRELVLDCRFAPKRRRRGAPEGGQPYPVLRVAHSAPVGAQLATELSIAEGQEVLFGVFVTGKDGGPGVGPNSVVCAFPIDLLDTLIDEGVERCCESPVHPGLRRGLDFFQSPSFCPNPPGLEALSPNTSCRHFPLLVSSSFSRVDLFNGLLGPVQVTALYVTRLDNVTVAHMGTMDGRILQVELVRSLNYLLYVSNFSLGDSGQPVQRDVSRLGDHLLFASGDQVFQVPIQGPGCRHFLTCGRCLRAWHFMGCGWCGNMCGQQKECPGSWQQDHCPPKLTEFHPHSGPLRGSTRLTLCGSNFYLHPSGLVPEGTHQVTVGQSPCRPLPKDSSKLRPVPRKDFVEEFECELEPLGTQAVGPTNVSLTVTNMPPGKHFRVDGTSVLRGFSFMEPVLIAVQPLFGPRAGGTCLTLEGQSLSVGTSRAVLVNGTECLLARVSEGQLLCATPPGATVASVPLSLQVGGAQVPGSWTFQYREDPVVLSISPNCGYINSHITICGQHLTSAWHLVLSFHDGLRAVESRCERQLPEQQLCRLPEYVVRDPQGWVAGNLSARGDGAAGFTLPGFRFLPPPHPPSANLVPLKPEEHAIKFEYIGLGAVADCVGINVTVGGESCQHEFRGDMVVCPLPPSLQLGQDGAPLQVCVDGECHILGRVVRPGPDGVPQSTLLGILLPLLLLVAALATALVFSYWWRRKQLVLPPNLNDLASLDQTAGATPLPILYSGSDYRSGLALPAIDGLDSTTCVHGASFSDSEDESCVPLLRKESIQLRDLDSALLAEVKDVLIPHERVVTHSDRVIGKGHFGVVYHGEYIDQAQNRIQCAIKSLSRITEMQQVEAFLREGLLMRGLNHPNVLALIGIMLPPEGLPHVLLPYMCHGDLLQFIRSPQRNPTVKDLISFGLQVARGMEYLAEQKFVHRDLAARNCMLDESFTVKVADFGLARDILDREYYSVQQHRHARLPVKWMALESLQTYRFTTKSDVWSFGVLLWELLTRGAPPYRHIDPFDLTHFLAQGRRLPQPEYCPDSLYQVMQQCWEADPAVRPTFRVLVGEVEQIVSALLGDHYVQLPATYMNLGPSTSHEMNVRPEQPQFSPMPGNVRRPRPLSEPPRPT
Sequence of LYN (P07948 whole entry): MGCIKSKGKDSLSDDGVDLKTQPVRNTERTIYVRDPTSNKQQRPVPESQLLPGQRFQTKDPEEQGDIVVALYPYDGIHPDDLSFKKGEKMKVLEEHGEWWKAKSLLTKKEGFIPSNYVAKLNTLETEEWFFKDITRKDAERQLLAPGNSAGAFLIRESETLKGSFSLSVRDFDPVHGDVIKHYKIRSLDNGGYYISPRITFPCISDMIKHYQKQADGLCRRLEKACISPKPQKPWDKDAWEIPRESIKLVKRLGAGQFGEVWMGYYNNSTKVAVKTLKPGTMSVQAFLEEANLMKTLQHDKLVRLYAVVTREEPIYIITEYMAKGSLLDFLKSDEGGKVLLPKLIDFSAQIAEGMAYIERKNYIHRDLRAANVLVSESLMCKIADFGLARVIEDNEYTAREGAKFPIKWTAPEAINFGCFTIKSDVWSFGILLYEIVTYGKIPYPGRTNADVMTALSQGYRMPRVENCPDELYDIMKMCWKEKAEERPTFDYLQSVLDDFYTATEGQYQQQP
Sequence of IGF1R (P08069 31-1367): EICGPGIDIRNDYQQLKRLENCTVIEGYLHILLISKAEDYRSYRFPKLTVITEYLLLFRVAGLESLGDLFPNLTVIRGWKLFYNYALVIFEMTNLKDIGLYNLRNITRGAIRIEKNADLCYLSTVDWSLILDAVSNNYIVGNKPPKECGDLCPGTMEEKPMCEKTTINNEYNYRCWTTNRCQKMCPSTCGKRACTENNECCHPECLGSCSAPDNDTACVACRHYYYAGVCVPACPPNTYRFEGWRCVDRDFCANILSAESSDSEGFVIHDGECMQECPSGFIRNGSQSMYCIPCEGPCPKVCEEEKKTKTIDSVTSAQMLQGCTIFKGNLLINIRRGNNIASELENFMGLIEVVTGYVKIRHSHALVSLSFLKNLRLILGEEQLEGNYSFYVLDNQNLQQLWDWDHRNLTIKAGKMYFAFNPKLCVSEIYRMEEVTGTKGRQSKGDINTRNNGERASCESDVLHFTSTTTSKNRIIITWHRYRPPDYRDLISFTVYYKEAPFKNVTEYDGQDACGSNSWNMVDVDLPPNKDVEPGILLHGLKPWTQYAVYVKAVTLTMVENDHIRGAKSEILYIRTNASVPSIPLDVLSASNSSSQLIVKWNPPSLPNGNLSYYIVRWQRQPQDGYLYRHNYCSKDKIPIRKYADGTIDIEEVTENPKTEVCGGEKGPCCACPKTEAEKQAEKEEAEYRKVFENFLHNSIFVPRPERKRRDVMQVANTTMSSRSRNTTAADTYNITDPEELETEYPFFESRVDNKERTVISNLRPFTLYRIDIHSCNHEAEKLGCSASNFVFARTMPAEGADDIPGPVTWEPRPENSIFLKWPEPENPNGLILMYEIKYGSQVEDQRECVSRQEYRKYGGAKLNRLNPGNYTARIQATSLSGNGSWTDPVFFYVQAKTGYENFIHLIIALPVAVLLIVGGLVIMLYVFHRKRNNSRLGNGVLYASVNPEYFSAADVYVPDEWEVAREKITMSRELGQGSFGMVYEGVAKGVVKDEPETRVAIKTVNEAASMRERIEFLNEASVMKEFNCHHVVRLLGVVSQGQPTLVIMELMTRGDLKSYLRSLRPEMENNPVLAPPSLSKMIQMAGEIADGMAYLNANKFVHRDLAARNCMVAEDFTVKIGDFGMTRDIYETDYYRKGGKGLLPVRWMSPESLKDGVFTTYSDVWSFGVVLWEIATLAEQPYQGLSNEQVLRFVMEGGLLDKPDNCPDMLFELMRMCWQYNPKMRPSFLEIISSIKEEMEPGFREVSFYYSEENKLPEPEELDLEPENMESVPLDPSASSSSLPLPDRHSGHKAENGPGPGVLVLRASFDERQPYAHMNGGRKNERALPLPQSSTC
T1 sequence (P02550 whole entry): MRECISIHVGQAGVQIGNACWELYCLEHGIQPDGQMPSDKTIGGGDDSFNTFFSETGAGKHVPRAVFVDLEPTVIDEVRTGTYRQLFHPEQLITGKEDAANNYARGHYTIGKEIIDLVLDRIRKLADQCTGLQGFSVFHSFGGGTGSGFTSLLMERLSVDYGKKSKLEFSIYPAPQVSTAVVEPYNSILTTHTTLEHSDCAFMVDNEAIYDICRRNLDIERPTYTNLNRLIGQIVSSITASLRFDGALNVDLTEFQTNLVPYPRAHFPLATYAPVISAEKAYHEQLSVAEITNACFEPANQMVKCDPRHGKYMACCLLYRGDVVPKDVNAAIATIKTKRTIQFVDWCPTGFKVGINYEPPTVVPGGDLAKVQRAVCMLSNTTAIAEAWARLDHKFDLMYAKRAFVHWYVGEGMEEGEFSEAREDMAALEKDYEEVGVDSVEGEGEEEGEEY
T1 sequence (P02554 whole entry): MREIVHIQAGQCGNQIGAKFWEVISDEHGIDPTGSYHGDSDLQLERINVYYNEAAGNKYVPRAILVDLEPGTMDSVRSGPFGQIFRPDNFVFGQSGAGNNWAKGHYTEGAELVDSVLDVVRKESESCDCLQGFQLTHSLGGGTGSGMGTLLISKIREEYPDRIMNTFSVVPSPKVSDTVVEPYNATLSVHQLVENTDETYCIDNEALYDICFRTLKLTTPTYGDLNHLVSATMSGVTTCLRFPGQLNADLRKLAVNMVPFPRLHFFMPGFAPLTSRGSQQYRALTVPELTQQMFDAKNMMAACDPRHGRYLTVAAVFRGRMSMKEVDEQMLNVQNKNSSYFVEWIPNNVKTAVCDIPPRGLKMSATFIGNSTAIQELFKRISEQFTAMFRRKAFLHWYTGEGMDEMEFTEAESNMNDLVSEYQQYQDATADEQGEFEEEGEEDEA

EC50 (U87): 650 ± 300 nM
remaining activity at 10 µM (CSK; 10 μM compound): 89%
remaining activity at 50 µM (CSK; 50 μM compound): 21%
remaining activity at 10 µM (IGF1R; 10 μM compound): 73%
remaining activity at 50 µM (IGF1R; 50 μM compound): 15%
remaining activity at 10 µM (LYN; 10 μM compound): 87%
remaining activity at 50 µM (LYN; 50 μM compound): 21%
remaining activity at 10 µM (RON; 10 μM compound): 84%
remaining activity at 50 µM (RON; 50 μM compound): 18%
remaining activity at 10 µM (SRC; 10 μM compound): 57%
remaining activity at 50 µM (SRC; 50 μM compound): 21%
Selectivity score (portion of kinases inhibited more than 50% in relation to all tested kinases) ([1]; 10 μM compound): 0.003
Selectivity score (portion of kinases inhibited more than 50% in relation to all tested kinases) ([1]; 50 μM compound): 0.203
Compound: O=C(CCCc1ccc(-c2cnc3ccccc3c2)cc1)Nc1ccc(O)cc1 [Compound 1-08, N-(4-hydroxyphenyl)-4-(4-(quinolin-3-yl)phenyl)butanamide]
effect on tubulin polymerisation compared to control (Porcine brain tubulin): inhibited tubulin polymerisation in a dose-dependent manner
effect on microtubules (U87 glioblastoma cells; 1 and 5 μM, FIG. 10B): disassembly of microtubules
number of multinucleated cells (U87 glioblastoma cells; 1 and 5 μM, FIGS. 10B and 10C): dose-dependent increase in the number of multinucleated cells
mitotic spindle formation (U87 glioblastoma cells; 48 h, FIG. 10D): defective spindle formation and chromosome misalignment
apoptosis, U87vIII (U87vIII): induced apoptosis
